For data set [1], the system named is A549.
Data set [2] has as its system PC-3.
Data set [3] relates to LNCaP-FGC. Put plainly: Cytotoxicity by MTT assay, confirmed by FACS propidium iodide uptake.
Data set [4] concerns HCT-116.
Data set [5] concerns A549. Briefly: Cytotoxicity by MTT assay, confirmed by FACS propidium iodide uptake. (Formazan colour is commonly taken as a measure of viable cells.)
The conditions of data set [6]: cited from earlier work.
The next data set has as its system Bcl-2 and Bax. Briefly: Bcl-2 and Bax levels in LNCaP cells. The note with it: etodolac incubation; data not shown.
Data set [7] deals with MDA-MB-231. Briefly: Cytotoxicity by MTT assay, confirmed by FACS propidium iodide uptake.
Data set [8] deals with Alva-31. Described as above.
In data set [9] the test system is PC-3. Put plainly: Cytotoxicity by MTT assay, confirmed by FACS propidium iodide uptake.
Another data set concerns Bag-1. Put plainly: Bag-1 level in LNCaP cells by SDS-PAGE immunoblot. The note with it: for effect on the etodolac-induced fall in Bag-1 levels: co- or pre-incubation with etodolac, MG-132 at 5.0 μM. In general terms: Immunoblotting shows a protein as a band on a membrane.
Data set [10] deals with CLL cells. Briefly: In vitro survival of CLL cells taken from patients before and after etodolac tablets. It is filed as in vivo, human. Conditions: patient two. How it is done: Heparinized blood was taken from two patients ([…]) with CLL. Then each patient immediately took a 400 mg etodolac tablet, and a second tablet 12 hours later. After another 12 hours, a second blood specimen was obtained. The CLL cells were isolated and their survival in vitro were compared in RPMI 1640 medium containing 10% autologous plasma, as described in Example 1. The circles show CLL cells before etodolac treatment. In FIGS. 6-7, the upward pointing triangles represent CLL cell viability after etodolac treatment, wherein the cells are dispersed in medium containing the pre-treatment plasma. The downward pointing triangles are CLL cells after treatment maintained in medium with the post-treatment plasma.
FIG. 8 is a flow cytometric analysis of CLL cells from patient two before and after etodolac treatment. […]
To conduct the flow cytometric analysis, the mitochondrial transmembrane potential was analyzed by 3,3′ dihexyloxacarboncyanide iodide (DiOC6), cell membrane permeability by propidium iodide (PI)3 and mitochondrial respiration by dihydrorhodamine 123 (DHR) (See J. A. Royall et al., Arch. Biochem. Biophys., 302, 348 (1993)). […] Cells were analyzed within 30 minutes in a Becton Dickinson FAC-Scalibur cytofluorometer. After suitable […], fluorescence was recorded at different wavelength: DiOC6 and DHR at 525 nm (Fl-1) and PI at 600 nm (FL-3).

The next data set relates to Mcl-1. Briefly: Mcl-1 level in LNCaP cells by SDS-PAGE immunoblot. Conditions: for effect on the etodolac-induced fall in Mcl-1 levels: co- or pre-incubation with etodolac, MG-132 at 5.0 μM.
Data set [11] concerns LNCaP-FGC.
The test system of data set [12] is Alva-31.
Data set [13] deals with OVCAR-3. Put plainly: Cytotoxicity by MTT assay, confirmed by FACS propidium iodide uptake.
Data set [14] deals with OVCAR-3.
Data set [15] concerns MDA-MB-231.
For data set [16], the system named is normal peripheral blood lymphocytes (PBL). Briefly: Viability of normal PBLs, erythrocin B exclusion assay. In kind it is cell-based, human. The note with it: FIG. 1; only at this concentration.
In data set [17] the test system is HCT-116. Put plainly: Cytotoxicity by MTT assay, confirmed by FACS propidium iodide uptake.
A further data set relates to normal B cells. Briefly: Viability of normal B lymphocytes (anti-CD19) by DiOC6 fluorescence. It is filed as cell-based, human. The note with it: 1.0 mM etodolac, 24 hours. How it is done:
Peripheral blood lymphocytes from a normal donor were cultured with 1.0 mM etodolac for 24 hours. Then B lymphocytes were identified by staining with anti-CD19 antibody, and viability was assessed by DiOC6 fluorescence. […] When the same viability assay was run with purified CLL cells from the peripheral blood of a CLL patient, the results were different. […] More than 95% of the treated cells were malignant B lymphocytes.

The test system of data set [18] is CLL cells. Put plainly: Viability of CLL cells in culture, erythrocin B exclusion assay. In kind it is cell-based, human. The note with it: for killing of CLL cells by either drug alone: fludarabine 10 nM or etodolac 10 μM alone, 48 hours, FIG. 3.
The test system of another data set is adjuvant polyarthritis. The note with it: reduction in paw volume of rats with adjuvant polyarthritis, prostaglandin synthetase inhibitory activity; Demerson et al.; cited from earlier work.
A further data set deals with PPAR-γ (Mus musculus, UniProt P37238). Conditions: RAW264.7, 24 hours; concentrations readily achieved in human plasma; FIG. 13.
Sequence of PPAR-γ (P37238 31-505 limits assumed): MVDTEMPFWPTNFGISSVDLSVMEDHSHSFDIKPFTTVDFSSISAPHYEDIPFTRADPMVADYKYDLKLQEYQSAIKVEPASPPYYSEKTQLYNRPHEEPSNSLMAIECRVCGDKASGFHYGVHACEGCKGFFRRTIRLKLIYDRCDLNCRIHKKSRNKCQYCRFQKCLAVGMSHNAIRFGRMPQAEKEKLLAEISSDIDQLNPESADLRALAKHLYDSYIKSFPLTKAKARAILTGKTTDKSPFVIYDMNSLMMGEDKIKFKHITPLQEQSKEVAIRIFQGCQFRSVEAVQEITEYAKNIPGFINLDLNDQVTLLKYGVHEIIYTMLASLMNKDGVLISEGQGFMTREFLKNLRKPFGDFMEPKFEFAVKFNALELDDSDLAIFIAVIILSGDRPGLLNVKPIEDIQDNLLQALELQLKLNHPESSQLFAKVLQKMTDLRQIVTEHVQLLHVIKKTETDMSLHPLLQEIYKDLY
The conditions of data set [19]: in vivo.
The target in a further data set is MRP (Homo sapiens, UniProt P33527). Conditions: WO98/18490; cited from earlier work.
Sequence of MRP (P33527 whole entry): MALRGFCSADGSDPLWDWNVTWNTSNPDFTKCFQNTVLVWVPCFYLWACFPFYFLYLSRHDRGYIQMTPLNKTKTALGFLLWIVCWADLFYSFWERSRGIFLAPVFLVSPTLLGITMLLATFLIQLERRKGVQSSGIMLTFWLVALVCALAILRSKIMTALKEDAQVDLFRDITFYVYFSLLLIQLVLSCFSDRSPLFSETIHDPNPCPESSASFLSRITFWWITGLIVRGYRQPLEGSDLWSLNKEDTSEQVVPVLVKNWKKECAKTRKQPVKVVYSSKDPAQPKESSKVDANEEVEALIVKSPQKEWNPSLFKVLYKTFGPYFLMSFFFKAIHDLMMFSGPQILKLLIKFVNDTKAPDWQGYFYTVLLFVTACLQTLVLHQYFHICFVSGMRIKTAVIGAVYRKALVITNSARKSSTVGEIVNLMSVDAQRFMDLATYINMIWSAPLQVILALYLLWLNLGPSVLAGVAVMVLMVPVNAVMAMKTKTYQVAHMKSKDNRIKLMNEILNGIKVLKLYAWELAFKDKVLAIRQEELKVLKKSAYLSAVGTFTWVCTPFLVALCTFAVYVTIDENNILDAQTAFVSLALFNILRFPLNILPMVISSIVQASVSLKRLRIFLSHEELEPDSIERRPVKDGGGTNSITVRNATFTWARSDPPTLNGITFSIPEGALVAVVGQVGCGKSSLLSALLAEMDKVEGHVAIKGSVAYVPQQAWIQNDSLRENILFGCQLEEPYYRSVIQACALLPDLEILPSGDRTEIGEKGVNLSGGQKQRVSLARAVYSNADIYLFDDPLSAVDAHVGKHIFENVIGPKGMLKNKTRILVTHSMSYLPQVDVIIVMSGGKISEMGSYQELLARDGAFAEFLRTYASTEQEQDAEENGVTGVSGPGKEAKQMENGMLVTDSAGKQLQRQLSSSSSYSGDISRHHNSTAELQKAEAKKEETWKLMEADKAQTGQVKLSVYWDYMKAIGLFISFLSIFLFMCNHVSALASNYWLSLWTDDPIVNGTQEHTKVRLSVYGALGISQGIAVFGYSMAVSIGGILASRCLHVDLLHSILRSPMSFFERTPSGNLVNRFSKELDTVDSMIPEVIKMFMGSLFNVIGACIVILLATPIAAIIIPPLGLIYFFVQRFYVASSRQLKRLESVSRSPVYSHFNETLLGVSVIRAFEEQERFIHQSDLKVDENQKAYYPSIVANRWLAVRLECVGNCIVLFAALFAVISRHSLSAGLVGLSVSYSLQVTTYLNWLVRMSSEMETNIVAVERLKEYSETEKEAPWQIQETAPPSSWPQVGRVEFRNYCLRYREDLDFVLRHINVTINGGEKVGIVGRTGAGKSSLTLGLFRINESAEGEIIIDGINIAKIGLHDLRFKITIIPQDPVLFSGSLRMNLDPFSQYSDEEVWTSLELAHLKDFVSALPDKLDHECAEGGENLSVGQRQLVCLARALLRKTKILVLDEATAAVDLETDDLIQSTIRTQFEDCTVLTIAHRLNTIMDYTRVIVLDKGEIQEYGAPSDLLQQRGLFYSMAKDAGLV
For the next data set, the system named is prostate cancer. Conditions: TRAMP mouse; Wechter et al. 2000; cited from earlier work.
A further data set relates to B-cell CLL cells. Conditions: Bellosillo et al., Blood 1998; cited from earlier work.
Where [20] appears, read: 100 μM etodolac, as early as two hours.

Read-outs that look alike come from different tables or passages of the source. Residues, ends and D or L forms follow the SMILES beside them. *: point of attachment. Cbz = O=C(OCc1ccccc1)*; CH2F = FC*

Text for prostate cancer tissue: The tissues were next fixed in 4% paraformaldehyde in PBS, embedded in paraffin, sectioned and stained with hematoxylin and eosin.

Take `CCc1cccc2c3c([nH]c12)C(CC)(CC(=O)O)OCC3` (stereo not drawn) [Etodolac R/S, 1,8-diethyl-1,3,4,9-tetrahydro[3,4-6]indole-1-acetic acid]: the IC50 (as a rule, the midpoint of a concentration-inhibition curve) with A549 [1] is over 1 mM; in the data set on SW260 it was 1 ± 0.12 mM; in the data set with PC-3 [2], 340 ± 20 µM; in the data set with HCT-116 [4], 450 ± 15 µM; with LNCaP-FGC [11], 400 ± 35 µM; in the data set on Alva-31 [12] it was over 1 mM. The IC50 in the data set on OVCAR-3 [14] and in the data set with MDA-MB-231 [15] was over 1 mM in each case. The Phenoty entry with SW260 (SW260, sensitivity of the cell line to etodolac) was “Resistant”; in the data set with LNCaP-FGC [3] (LNCaP-FGC, sensitivity of the cell line to etodolac), “Sensitive”; with A549 [5] (A549, sensitivity of the cell line to etodolac), “Resistant”; in the data set on MDA-MB-231 [7] (MDA-MB-231, sensitivity of the cell line to etodolac) it was “Resistant”; in the data set on Alva-31 [8] (Alva-31, sensitivity of the cell line to etodolac) it was “Resistant”; in the data set with PC-3 [9] (PC-3, sensitivity of the cell line to etodolac) it was “Sensitive”. Further, the Phenoty entry with OVCAR-3 [13] (OVCAR-3, sensitivity of the cell line to etodolac) is on record as “Resistant”; in the data set on HCT-116 [17] (HCT-116, sensitivity of the cell line to etodolac), “Sensitive”. In data set [6] (in vivo), the elimination half-life is 6 to 8 h. In addition, in the data set with Bcl-2 and Bax, the “Bcl-2 and Bax levels” value is “did not alter”. Besides, the “effect on normal basal cells in prostatectomy samples” value in the data set with prostate cancer tissue was “did not affect”. Also, in the data set on Bag-1 (setting [20]), the Bag-1 levels entry is “fell”. Further, the “apoptotic CLL cells (low DiOC6 staining, left lower box) after versus before treatment” value in the data set with CLL cells [10] (flow cytometry, detectable at 12 hours, increases after 24 hours, FIG. 8) is “much higher after the drug”. Also, the “in vitro survival of CLL cells after treatment compared to before treatment” value with CLL cells [10] (two 400 mg tablets 12 hours apart, FIG. 6) is “shortened survival”. Also, the Mcl-1 levels entry with Mcl-1 (setting [20]) is recorded as “fell”. The “concentration at which significant death of normal PBLs occurred” value in [16] was 800 µM. Besides, in the data set on normal B cells, the “viability of normal B cells compared to control cultures” value is “did not reduce the viability”. Moreover, in the data set on CLL cells [18] (200 μM, 48 hour exposure, FIG. 2), the CLL cells killed was determined as 50%. In addition, the “killing of CLL cells by either drug alone” value in the data set with CLL cells [18] was “ineffective”.

Take `CCc1cccc2c3c([nH]c12)[C@@](CC)(CC(=O)O)OCC3` [Etodolac R]: the IC50 in the data set with LNCaP-FGC [3] (read-out: IC50 cytotoxicity, LNCaP-FGC (prostate), MTT after three days continuous exposure) is 270 ± 50 µM; in the data set on A549 [5] (read-out: IC50 cytotoxicity, A549 (lung), MTT after three days continuous exposure), over 1 mM; in the data set on MDA-MB-231 [7] (read-out: IC50 cytotoxicity, MDA-MB-231 (breast), MTT after three days continuous exposure) it was over 1 mM; in the data set on Alva-31 [8] (read-out: IC50 cytotoxicity, Alva-31 (prostate), MTT after three days continuous exposure), over 1 mM; with PC-3 [9] (read-out: IC50 cytotoxicity, PC-3 (prostate), MTT after three days continuous exposure), 150 ± 15 µM; in the data set with OVCAR-3 [13] (read-out: IC50 cytotoxicity, OVCAR-3 (ovarian), MTT after three days continuous exposure) it was over 1 mM. Moreover, in the data set on HCT-116 [17] (read-out: IC50 cytotoxicity, HCT-116 (colon), MTT after three days continuous exposure), the IC50 was determined as 280 ± 20 µM. Besides, the maximum plasma concentration entry in [6] (after a 200 mg dose in six elderly patients) is “about 33 μM”. Also, the “plasma concentrations, fold higher than those of the S-enantiomer” value in data set [6] (after the administration of RS-etodolac) was “about 10 fold”. Also, in the data set with adjuvant polyarthritis, the anti-inflammatory activity result is “No anti-inflammatory activity was discernible”. The “activation of PPAR-γ reporter gene construct” value at PPAR-γ is “activated”. Also, the “Mcl-1 degradation by the enantiomers” value with Mcl-1 is listed as “induced Mcl-1 degradation at equivalent concentrations”. Besides, the “maximal plasma concentration in a human subject (should yield)” value in [19] is “about 400 μM”.

Consider `CCc1cccc2c3c([nH]c12)C(CC)(CC(=O)O)OCC3` (stereo not drawn) [Etodolac S], for which the IC50 is over 1 mM with A549 [1]; 800 µM in the data set on PC-3 [2]; 420 ± 50 µM with HCT-116 [4]; 220 ± 20 µM in the data set with LNCaP-FGC [11]; over 1 mM with Alva-31 [12]; over 1 mM with OVCAR-3 [14]. Also, the 50% inhibitory concentration (IC50) with MDA-MB-231 [15] is over 1 mM. Also, the anti-inflammatory activity result with adjuvant polyarthritis is “almost all of the anti-inflammatory activity of the racemate”. On PPAR-γ, the “activation of PPAR-γ reporter gene construct” value was “activated”. Also, in the data set with Mcl-1, the “Mcl-1 degradation by the enantiomers” value is reported as “induced Mcl-1 degradation at equivalent concentrations”.

On to `CC(C)C[C@@H](C=O)NC(=O)[C@H](CC(C)C)NC(=O)[C@H](CC(C)C)NC(=O)OCc1ccccc1` [MG-132] (Cbz-Leu-Leu-Leu-aldehyde), for which the “effect on the etodolac-induced fall in Bag-1 levels” value in the data set on Bag-1 is “prevented”. In addition, the “effect on the etodolac-induced fall in Mcl-1 levels” value with Mcl-1 is on record as “prevented”.

Take `COc1ccc2cc([C@H](C)C(=O)O)ccc2c1` [Naproxen]: on MRP, the “increase of the potency of the anti-cancer drug” value is “inactive”.

Consider `C[C@@H](C(=O)O)c1ccc(-c2ccccc2)c(F)c1` [R-flurbiprofen], for which the “progression of prostate cancer” value with prostate cancer was “inhibited progression of prostate cancer”.

Take `CC(NC(=O)C(NC(=O)OCc1ccccc1)C(C)C)C(=O)NC(CC(=O)O)C(=O)CF` (stereo not drawn) [Z-VAD] (Cbz-Val-Ala-Asp-CH2F; configuration not given here): in the data set with Bag-1, the “effect on the etodolac-induced fall in Bag-1 levels” value is reported as “did not prevent”. In the data set on Mcl-1, the “effect on the etodolac-induced fall in Mcl-1 levels” value was “did not prevent”.

Turning to `CC(=O)Oc1ccccc1C(=O)O` [aspirin], the “viability of B-cell CLL cells in vitro” value in the data set on B-cell CLL cells was “reduced the viability”.

In the case of `Nc1nc(F)nc2c1ncn2[C@@H]1O[C@H](CO)[C@@H](O)[C@@H]1O` [fludarabine], the “killing of CLL cells by either drug alone” value in the data set with CLL cells [18] was “ineffective”.

For the molecule `CN1C(C(=O)Nc2ccccn2)=C(O)c2ccccc2S1(=O)=O` [piroxicam], on MRP, the “increase of the potency of the anti-cancer drug” value is “inactive”.

Consider `O=C(O)c1ccccc1O` [salicylate], for which, in the data set on B-cell CLL cells, the “viability of B-cell CLL cells in vitro” value is given as “reduced the viability”.

The values are drawn from patent US20040152672A1, “Indole compounds useful for the treatment of cancer” (priority 2000, published 2004).
